Legend:
[1] = tested on: HIV-1 Gag VLP; experiment: Gag VLP production / budding, Western blot analysis; format: cell-based
Description: FIG. 15A-D. N16 inhibits HIV-1 NL4-3 and Gag VLP production. A) Effect on virus production. Virus particles from N16-treated 293T cells transfected with pNL4-3 as determined by ELISA assay. Top, The compound was added 6 hr prior to DNA transfection and tissue culture media was harvested 24 hr later. Bottom, The compound was added at the indicated concentration 24 hr after DNA transfection and tissue culture media was harvested 24 hr later. Assay values were normalized to that of the DMSO carrier control. B) Effect on virus infectivity. Infectious viral particles per ng p24 as determined by MAGI assay. C) Left, Electron microscopy of particles at cell surface at 24 hr post-N16 addition; Right, Quantitative analysis of budding morphologies. Cells expressing WT- or P7L-NL4-3 were exposed to DMSO carrier or 50 μM N16. Arrows indicate emerging ‘Early’ buds. D) Effects on Gag VLP production. Top, Western blot analysis. Cells treated at the indicated concentration were transfected with DNA encoding Gag-HA. At the end of the treatment period, tissue culture media was removed for VLP isolation. Cells were suspended in lysis buffer. Blots were probed for Gag-HA and actin. Bottom, Quantitative analysis. Ratio of VLP- or cell-associated Gag to actin normalized to the mock-treated control (0 μM N16). Number of independent trials (n) for A), B), C), and D)=3, 2, 2 and 3, respectively.
FIG. 21A-B. N16 suppresses the inhibitory effect of fusing DUb to Gag. […] Top, Western blot analysis of Gag in cushioned VLP samples; Middle, Gag and actin in cell lysates; Bottom, Quantitative analysis of VLP release efficiency normalized to the WT Gag control (Gag and Gag-DUb differed in sample size in order to yield visible signal); B) Effect of N16 on Gag and GagDUb VLP production. […] Bottom, Quantitative analysis of VLP production (left), lysate Gag (center) and VLP release efficiency (right) normalized to the mock-treated control. […]
For production of virus particles, 293T cells were transfected with pNL4-3-ΔEnv and pIIIB Env3-1 plasmids and for virus-like particles (VLP), with pCMV-Gag-HA as previously described (Watanabe et al. (2013)). For specific infectivity, media-associated p24 was determined by ELISA (Immunodiagnostics, Inc.) and equivalent amounts of p24 were used to infect HeLa-CD4+-LTR-3 gal cells for infectivity measurement by the multinuclear activation of a galactosidase indicator (MAGI) assay. […] For cell-associated Gag analysis, cell pellets were lysed with either Triton X-100 or RIPA buffer with complete mini protease inhibitor cocktail (Roche) and analyzed by Western blotting. Protein bands were visualized using an infrared-based imaging system (Odyssey, LI-COR Biotechnology) and band intensities measured using the Li-Cor Odyssey software version 2.1.15. […]

[2] = tested on: Gag-Tsg101 co-localization on the plasma membrane; experiment: Gag-Tsg101 co-localization by fluorescence microscopy, Pearson's coefficient; format: cell-based
Description: FIG. 19A-F. N16 (50 μM) prevents co-localization of Gag and Tsg101 on the plasma membrane. A-E) Fluorescence microscopy images of cells that co-express Tsg101-Myc alone or GagWT-GFP and Tsg101-Myc. Cells grown on coverslips were co-transfected with DNA encoding Tsg101-Myc (A) or Tsg101-Myc and GagWT-GFP (B, D and E) or GagP7L-GFP (C) and treated with F15 (D) or N16 (E). After 24 hr the coverslips were processed for microscopy with Tsg101-Myc detected with anti-Myc antibody and Texas Red secondary antibody as described in Materials & Methods. A) Tsg101-Myc in cells treated with DMSO carrier (top) or N16 (bottom). B-E), Top panels, show signal from Gag-GFP; middle panels, images showing Tsg101-Myc signal; bottom panels, merged images showing signals from Gag-GFP and Tsg101-Myc. Boxes frame a region of the plasma membrane. F) Pearson's coefficient of correlation values determined for the images shown. Error bars indicate the highest values obtained for similar samples. n=6.
FIG. 26A-D. N16 binds covalently to C73 in the Tsg101 UEV domain. A) Activation of N16 to reactive sulfenamide. N16 (i) is converted to intermediates sulfenic acid (ii) and sulfenamide (iii) through acid catalysis to yield a covalently attached N16-Tsg101 UEV complex (iv). B) HNCACB Cβ regions for residues C73, L74, 186 and C87 of Tsg101 without (−) and with (+) N16. C) Examination by fluorescence microscopy of cells co-expressing GagWT-GFP and Tsg101WT-Myc, Tsg101C73A-Myc or Tsg101C87A-Myc in the absence and presence of 50 μM N16. n=3 D) Pearson's coefficient of correlation values.
Hela cells grown on cover slips were transfected with pCMV-Gag-EGFP alone or together with pLLEXP1-hTsg101-myc. Cells were fixed in 4% formaldehyde (Sigma) and permeabilized in 0.1% Triton X-100. Tsg101 was detected in the samples by indirect immunofluorescence using anti-myc Mab and Texas Red anti-mouse IgG. Nuclei were stained with Hoechst. Images were captured on an inverted fluorescence/differential-interference contrast (dic) Zeiss Axiovert 200M deconvolving fluorescence microscope operated by AxioVision Version 4.5 (Zeiss) software and deconvolved by using the constrained iterative method (AxioVision). Protein co-localization was assessed in 40 or more cells by determination of Pearson's coefficient of correlation using Image J software and regarded as significant when a value of 0.6 or higher (equivalent to a 95% level of confidence for that number of cells) was observed (Manders, E. M. M., et al. (1993)).

SMILES: COc1ccc2nc([S@@+]([O-])Cc3ncc(C)c(OC)c3C)[nH]c2c1 [F15, esomeprazole]
- effectiveness in tissue culture budding assay ([1]; compared with Tenatoprazole): less effective than Tenatoprazole
- reduction of intensity of Gag-Tsg101 co-localization signal [2]: ~2 fold

SMILES: COc1ccc2[nH]c([S+]([O-])Cc3ncc(C)c(OC)c3C)nc2n1 (centres unmarked) [N16, tenatoprazole]
- budding directed by WT Gag ([1]; 50 μM N16, 293T): inhibited
- Gag intracellular accumulation and VLP formation ([1]; 293T, FIG. 15D): dose-dependent reduction
- budding of the Gag-DUb fusion ([1]; N16 present, 293T): not inhibited
- co-localization of Gag and Tsg101C73A-myc ([2]; 50 μM N16): failed to prevent co-localization
- co-localization of Gag and Tsg101C87A-myc ([2]; 50 μM N16): effectively eliminated co-localization
- reduction of intensity of Gag-Tsg101 co-localization signal [2]: ~2 fold

Source: patent publication US12059413B2, “Methods of inhibiting viruses using compositions targeting TSG101-ubiquitin interaction” (The Research Foundation for the State University of New York, priority 2016, dated 2024)
